According to patent US8058307B2, “Alcanoic acid amides substituted by saturated O-heterocycles” (Novartis AG, priority 2005, dated 2011):

Target: T1, renin (Homo sapiens, UniProt P00797)
T1 construct: This test measures the formation of angiotensin I in human plasma; from tissue; host or cells: human plasma
T1 sequence (P00797 67-406): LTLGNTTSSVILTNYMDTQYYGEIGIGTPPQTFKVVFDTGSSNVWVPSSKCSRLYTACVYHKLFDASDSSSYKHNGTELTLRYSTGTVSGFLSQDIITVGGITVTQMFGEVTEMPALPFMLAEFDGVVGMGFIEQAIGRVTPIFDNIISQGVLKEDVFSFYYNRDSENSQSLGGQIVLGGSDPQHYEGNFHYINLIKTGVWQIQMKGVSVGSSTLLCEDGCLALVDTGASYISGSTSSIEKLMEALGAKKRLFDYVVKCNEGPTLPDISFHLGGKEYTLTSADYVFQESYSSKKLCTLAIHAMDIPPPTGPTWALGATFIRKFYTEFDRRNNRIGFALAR
Assay: in vitro test of Nussberger et al.: formation of angiotensin I in human plasma, radio-immunoassay
Assay type: biochemical
Conditions: concentration which reduces the formation of angiotensin I in human plasma by 50%
Method: The effect of renin inhibitors is detected inter alia experimentally by means of in vitro tests where the reduction in the formation of angiotensin I is measured in various systems (human plasma, purified human renin together with synthetic or natural renin substrate). The following in vitro test of Nussberger et al. (1987) J. Cardiovascular Pharmacol., Vol. 9, pp. 39-44, is used inter alia. This test measures the formation of angiotensin I in human plasma. The amount of angiotensin I formed is determined in a subsequent radio-immunoassay. The effect of inhibitors on the formation of angiotensin I is tested in this system by adding various concentrations of these substances. The IC50 is defined as the concentration of the particular inhibitor which reduces the formation of angiotensin I by 50%.

## COCCCOc1cc(C[C@@H](C[C@H](N)[C@@H](O)C[C@H](C(=O)NC[C@H]2CCCO2)C(C)C)C(C)C)ccc1OC [Example 1, 5-Amino-4-hydroxy-2-isopropyl-7-[4-methoxy-3-(3-methoxypropoxy)benzyl]-8-methyl-N-(tetrahydrofuran-2(R)-ylmethyl)nonamide]
  IC50: 2.6 nM
